Experiments:
[1] = Plasma protein binding across species; type: in vitro ADME, monkeys, humans, mice, rats, and dogs; details: monkey, human, mouse, rat, dog, range across species, 1 to 100 μM
Protocol: Intravenous and oral pharmacokinetics of ETX1317 and ETX0282 in preclinical species are summarized in Table 7 and Table S1, respectively. Time vs concentration profiles are depicted graphically in Figure S1.
(§1) Plasma protein binding was determined by rapid equilibrium dialysis. Plasma was freshly prepared from blood samples drawn in to EDTA (anticoagulant) containing tubes. Plasma was prepared using a table-top centrifuge and spun per instruction of the tube manufacturer and specifications (Beckton, Dickinson and Company, Franklin Lakes, NJ) and placed on ice prior to use.
(§2) Pooled plasma samples were centrifuged at 2000 rpm (approximately 1400g) for 15 min at 4 °C to remove debris. Approximately 90% of the clear supernatant fraction was transferred to a separate tube. Samples (500 μL) were then spiked with a 100× stock solution 100 μM, 0.5 mM, and 10 mM ETX1317 in DMSO respectively for 1, 5, and 100 μM final concentrations, transferred to the top of the filter chambers, and allowed to equilibrate for 15 min prior to centrifugation. The filtrate tubes were centrifuged at 14000g for 15 min at 4 °C. Next, 50 μL of the filtrate was precipitated with 300 μL of acetonitrile containing 250 ng/mL of carbutamide as the internal standard and the samples were analyzed by LC/MS/MS analysis.

Plasma protein binding [2] = type: in vitro ADME, rat
Protocol: as §1, §2

Plasma protein binding [3] = type: in vitro ADME, dog
Protocol: as §1, §2

Plasma protein binding [4] = type: in vitro ADME, mouse
Protocol: as §1, §2

[5] = system: Enterobacteriaceae isolates; assay: Hollow-fiber and chemostat models, strains combined; type: cell-based, E. coli, K. pneumoniae
Protocol: The PK/PD driver of ETX1317 was assessed in the presence of CPD in both hollow-fiber[28]−[31] and chemostat[32]in vitro infection model systems. In all cases, CPD was administered q12h via a 2 h infusion and eliminated with a 2 h half-life, with the concentration of drug exceeding the MIC (the MIC of CPD in the presence of ETX1317 at a 1:2 ratio) for 50% of the dosing interval for each strain. Representative Emax plots are shown graphically for Escherichia coli ARC2687 in the hollow-fiber model and Klebsiella pneumoniae ARC4420 in the chemostat system (Figure 2). […] This could partially be attributed to the distribution of the concentration ranges utilized for the hollow-fiber infection model (HFIM) where most of the data scatter occurred in the efficacious dose range for lower MIC strains. It is important to note that initial evaluation of K. pneumoniae ARC4420 and ARC5118 was completed in the HFIM but rapid degradation of CPD, presumably through accumulation of β-lactamases in the extra-capillary space of the cartridge precluded a reliable assessment of the PK/PD driver with these strains in this model.[32] […] In both the HFIM and chemostat models the optimum critical threshold of ETX1317 was established through iterative Emax fitting of a range of ETX1317 concentrations from 0.5× to 2× the CPD:ETX1317 MIC value. In the HFIM, %Time > ETX1317 CT of 2× MIC provided the highest correlation to observed activity which appeared to be independent to the apparent intrinsic activity of ETX1317 (as reflected by ETX1317 MICBLI of K. pneumoniae ARC4486 vs ARC4488). […] In both models CPD infused alone mimicked vehicle control as expected with similar growth of +2 to 4 log10 CFU/mL.
PK/PD-derived exposure targets for BLIs have utilized various approaches for clinical dose setting. The use of a singular critical threshold value independent of MIC has been used for recent BL/BLI combinations such as ceftazidime/avibactam[34] aztreonam/avibactam,[35] but this has been problematic to correlate activity across a broad range of MICs. More recent work with ceftolozane/tazobactam[36] and other BLI combinations[37],[38] considers a critical threshold value that varies proportionally to the MIC value. […] Convergence of the data to a threshold value related to MIC simplifies dose setting and, in this case, appears to be consistent across a broad range of susceptibility (0.125–1 μg/mL).
Dose range and dose fractionation were performed in hollow-fiber infection model (HFIM) and chemostat (one-compartment) in vitro infection model. […] CPD concentrations were targeted to achieve exposure of ∼50%Time > MIC determined in the presence of ETX1317. […] Bacterial burden (CFU/mL) was serially assessed by sampling (500 μL) from the extra-capillary space of the HFIM cartridge at predetermined time points. […]

Excretion into the bile = details: in vivo
Protocol: Based upon the non-clinical PK data, a range of 60–80% bioavailability and a moderate absorption rate of 0.5–1.0 h^–1 have been considered for humans. In consideration of these predicted parameters, mean percent fT > CT of 1 μg/mL (2× MIC of 0.5 μg/mL) estimates for a 500 mg ETX1317 equiv q12h dose of ETX0282 are summarized in Table S3.

Plasma protein binding [6] = type: in vitro ADME, human
Protocol: as §1, §2

`CC1=C[C@@H](C(N)=O)N2C[C@@H]1N(O[C@H](F)C(=O)O)C2=O` [ETX1317] gave a fraction unbound at 15 min [1] of 0.77 to 1, a Proportion unbound (Plasma protein binding [2]; 1 µM) of 94% and a Proportion unbound (Plasma protein binding [2]; 5 µM) of 97%. It also gave a Proportion unbound (Plasma protein binding [2]; 100 µM) of 83%, a Proportion unbound (Plasma protein binding [3]; 1 µM) of 92% and a Proportion unbound (Plasma protein binding [3]; 5 µM) of 100%. For the same molecule, the Proportion unbound (Plasma protein binding [3]; 100 µM) was 81%, the Proportion unbound (Plasma protein binding [4]; 1 µM) was 88% and the Proportion unbound (Plasma protein binding [4]; 5 µM) was 100%. The Proportion unbound (Plasma protein binding [4]; 100 µM) was 90%, the fraction unbound at 15 min (Plasma protein binding [4]; mouse plasma, read-out: percent unbound) was 0.93 and the growth ([5]; infused alone q12h to a Cmax of 16 μg/mL, 100%Time > MICBLI) was “+0.5 log”. The “% of dosing interval with unbound concentration > 2× MIC associated with reducing bacterial burden below stasis” value ([5]; with CPD) was 50%, the “% of dosing interval with concentration > 2× MIC for cidal activity” value ([5]; with CPD 50%Time > MIC, in vitro and in vivo models) was 60% and the “excretion into the bile” value (Excretion into the bile) was “minimal excretion”. For the same molecule, the Proportion unbound (Plasma protein binding [6]; 1 µM) was 82%, the Proportion unbound (Plasma protein binding [6]; 5 µM) was 99% and the Proportion unbound (Plasma protein binding [6]; 100 µM) was 80%.

Reference: PMC7297445, “Pharmacokinetic/Pharmacodynamic Determination and Preclinical Pharmacokinetics of the β-Lactamase Inhibitor ETX1317 and Its Orally Available Prodrug ETX0282” (ACS Infectious Diseases, 2020)
